Experimental data as given in ChEMBL document CHEMBL1121491, “Ultraviolet photoelectron spectroscopy of cyclic amidines. 2. Electronic structure of clonidine and some related 2-(phenylimino)imidazolidines with alpha-adrenergic activity” (1980).

System: Rattus norvegicus
Assay: Hypotensive activity by intravenous administration to rats
Format: functional

| Compound | Log 1/ED50 |
| --- | --- |
| Clc1ccccc1N=C1NCCN1 | 0.13 |
| Cc1ccccc1N=C1NCCN1 | -0.67 |
| Cc1cccc(C)c1N=C1NCCN1 | 0.85 |
| c1cc2c(c(NC3=NCCN3)c1)CCCC2 [TRAMAZOLINE] | 0.47 |
| Fc1cccc(F)c1N=C1NCCN1 | -0.41 |
| c1ccc(NC2=NCCN2)cc1 | -2.1 |
| Clc1cccc(Cl)c1NC1=NCCN1 [CLONIDINE] | 1.99 |
